Source: patent US20020035061A1, “COMPOSITIONS AND METHODS FOR TREATING INFECTIONS USING CATIONIC PEPTIDES ALONE OR IN COMBINATION WITH ANTIBIOTICS” (priority 1996, published 2002)
≈ marks a conversion by molar mass, not a printed value. Where “and” joins values, the source holds several entries; their conditions need not be identical. Equal values may be shown once. Read-outs that look alike come from different tables or passages of the source.

Legend:
Assay in all cases: microbe, parasite or virus in culture
Format in all cases: cell-based
[1] = test system: microorganisms with acquired resistance; settings: for Peptide MIC Alone: Gentamicin section; for FIC: peptide + Gentamicin
bacterial isolates = settings: for Peptide MIC Alone: 4. Gentamicin; for FIC: peptide + Gentamicin
[2] = test system: vancomycin / teicoplanin resistant enterococci
[3] = test system: inherently resistant microorganisms; settings: for Peptide MIC Alone: Amikacin section; for FIC: peptide + Amikacin
[4] = Pseudomonas aeruginosa, read-out: Amikacin MIC Alone, P. aeruginosa PA022
[5] = Enterococcus faecalis, read-out: Amikacin MIC Alone, E. faecalis EFS008
[6] = Enterococcus faecium, read-out: Amikacin MIC Alone, E. faecium EFM004
[7] = S. maltophilia (strain line r400 not shown)

NCC[C@H](O)C(=O)N[C@@H]1C[C@H](N)[C@@H](O[C@H]2O[C@H](CN)[C@@H](O)[C@H](O)[C@H]2O)[C@H](O)[C@H]1O[C@H]1O[C@H](CO)[C@@H](O)[C@H](N)[C@H]1O [Amikacin] was tested, and the MIC [1, 4] was 64 µg/mL (≈ 109 µM), the “Amikacin MIC Alone” value (bacterial isolates; A. baumannii ABI001) was 32 µg/mL and the MIC (bacterial isolates; Acinetobacter baumannii, read-out: Amikacin MIC Alone, A. baumannii ABI001) was 64 µg/mL (≈ 109 µM). For the same compound, the MIC (bacterial isolates; Acinetobacter baumannii, read-out: Amikacin MIC Alone, A. baumannii ABI003) was 16 µg/mL (≈ 27.3 µM), the “Amikacin MIC Alone” value (bacterial isolates; B. cepacia BC005) was 128 µg/mL and the MIC (bacterial isolates; Burkholderia cepacia, read-out: Amikacin MIC Alone, B. cepacia BC003) was 32 µg/mL (≈ 54.6 µM). The MIC (bacterial isolates; Burkholderia cepacia, read-out: Amikacin MIC Alone, B. cepacia BC005) was 64 µg/mL (≈ 109 µM), the “Amikacin MIC Alone” value (bacterial isolates; E. faecalis EFS008) was 64 µg/mL and the “Amikacin MIC Alone” value (bacterial isolates; E. faecium EFM004) was greater than 128 µg/mL. The MIC (bacterial isolates; [5]) was 32 µg/mL (≈ 54.6 µM), the MIC (bacterial isolates; [6]) was 128 µg/mL (≈ 219 µM) and the MIC (bacterial isolates; Escherichia coli, read-out: Amikacin MIC Alone, E. coli ECO022) was 16 µg/mL (≈ 27.3 µM). For the same compound, the “Amikacin MIC Alone” value (bacterial isolates; P. aeruginosa PA022) was 128 µg/mL, the MIC (bacterial isolates; [4]) was 64 µg/mL (≈ 109 µM) and the MIC (bacterial isolates; Pseudomonas aeruginosa, read-out: Amikacin MIC Alone, P. aeruginosa PA037) was 16 µg/mL (≈ 27.3 µM). For the same compound, the “Amikacin MIC Alone” value (bacterial isolates; S. epidermidis SE003) was 64 µg/mL, the “Amikacin MIC Alone” value (bacterial isolates; S. maltophilia SMA018) was greater than 128 µg/mL and the “Amikacin MIC Alone” value (bacterial isolates; S. maltophilia SMA037) was 64 µg/mL. The MIC (bacterial isolates; Staphylococcus aureus, MRSA, read-out: Amikacin MIC Alone, S. aureus SA014 MRSA) was 32 µg/mL (≈ 54.6 µM), the MIC (bacterial isolates; Staphylococcus aureus, MRSA, read-out: Amikacin MIC Alone, S. aureus SA025 MRSA) was 32 µg/mL (≈ 54.6 µM) and the MIC (bacterial isolates; Staphylococcus epidermidis, read-out: Amikacin MIC Alone, S. epidermidis SE002) was 64 µg/mL (≈ 109 µM). It also gave an MIC (bacterial isolates; Staphylococcus epidermidis, read-out: Amikacin MIC Alone, S. epidermidis SE003) of 32 µg/mL (≈ 54.6 µM), an MIC (bacterial isolates; Stenotrophomonas maltophilia, read-out: Amikacin MIC Alone, S. maltophilia SMA018) of 128 µg/mL (≈ 219 µM) and an MIC (bacterial isolates; Stenotrophomonas maltophilia, read-out: Amikacin MIC Alone, S. maltophilia SMA021) of 128 µg/mL (≈ 219 µM). The MIC (bacterial isolates; Stenotrophomonas maltophilia, read-out: Amikacin MIC Alone, S. maltophilia SMA022) was greater than 128 µg/mL, the MIC (bacterial isolates; Stenotrophomonas maltophilia, read-out: Amikacin MIC Alone, S. maltophilia SMA036) was greater than 128 µg/mL and the MIC (bacterial isolates; Stenotrophomonas maltophilia, read-out: Amikacin MIC Alone, S. maltophilia SMA037) was 128 µg/mL (≈ 219 µM). The MIC (bacterial isolates; Stenotrophomonas maltophilia, read-out: Amikacin MIC Alone, S. maltophilia SMA060) was greater than 128 µg/mL, the MIC (bacterial isolates; Stenotrophomonas maltophilia, read-out: Amikacin MIC Alone, S. maltophilia SMA063) was greater than 128 µg/mL and the MIC (bacterial isolates; Stenotrophomonas maltophilia, read-out: Amikacin MIC Alone, S. maltophilia SMA064) was greater than 128 µg/mL. The “Amikacin MIC Alone” value ([2]; E. faecium EFM004) was 64 µg/mL and >128 µg/mL, the MIC [2, 5] was 64 µg/mL (≈ 109 µM) and the MIC [2, 6] was 128 µg/mL (≈ 219 µM). It also gave an MIC ([2]; Enterococcus faecium, read-out: Amikacin MIC Alone, E. faecium EFM020) of 32 µg/mL (≈ 54.6 µM), an MIC ([3]; Acinetobacter baumannii, read-out: Amikacin MIC + Peptide, A. baumannii, peptide Deber A2KA2) of 16 µg/mL and an MIC ([3]; Acinetobacter baumannii, read-out: Amikacin MIC + Peptide, A. baumannii, peptide MBI 11B16CN) of 4 µg/mL. It also gave an MIC ([3]; Acinetobacter baumannii, read-out: Amikacin MIC + Peptide, A. baumannii, peptide MBI 27) of 16 µg/mL, an MIC ([3]; Acinetobacter baumannii, read-out: Amikacin MIC + Peptide, A. baumannii, peptide MBI 29F1) of 16 µg/mL and an MIC ([3]; Acinetobacter baumannii, read-out: Amikacin MIC Alone, A. baumannii) of 32 µg/mL (≈ 54.6 µM). The “Amikacin MIC + Peptide” value ([3]; B. cepacia, peptide MBI 29A3) was 32 µg/mL, the MIC ([3]; Burkholderia cepacia, read-out: Amikacin MIC + Peptide, B. cepacia, peptide MBI 27) was 16 µg/mL and the MIC ([3]; Burkholderia cepacia, read-out: Amikacin MIC + Peptide, B. cepacia, peptide MBI 29A3) was 16 µg/mL. For the same compound, the “Amikacin MIC + Peptide” value ([3]; S. aureus MRSA, peptide MBI 11B16CN) was 4 µg/mL, the “Amikacin MIC + Peptide” value ([3]; S. maltophilia, peptide MBI 11B16CN) was 4 µg/mL and the “Amikacin MIC + Peptide” value ([3]; S. maltophilia, peptide MBI 21A2) was 16 µg/mL. For the same compound, the “Amikacin MIC + Peptide” value ([3]; S. maltophilia, peptide MBI 26) was 16 µg/mL, the “Amikacin MIC + Peptide” value ([3]; S. maltophilia, peptide MBI 29A3) was 16 µg/mL and the MIC ([3]; Staphylococcus aureus, MRSA, read-out: Amikacin MIC + Peptide, S. aureus MRSA, peptide Deber A2KA2) was 0.125 µg/mL. For the same compound, the MIC ([3]; Staphylococcus aureus, MRSA, read-out: Amikacin MIC + Peptide, S. aureus MRSA, peptide MBI 11B16CN) was 8 µg/mL, the MIC ([3]; Staphylococcus aureus, MRSA, read-out: Amikacin MIC + Peptide, S. aureus MRSA, peptide MBI 21A2) was 2 µg/mL and the MIC ([3]; Staphylococcus aureus, MRSA, read-out: Amikacin MIC + Peptide, S. aureus MRSA, peptide MBI 27) was 16 µg/mL. For the same compound, the MIC ([3]; Staphylococcus aureus, MRSA, read-out: Amikacin MIC + Peptide, S. aureus MRSA, peptide MBI 29F1) was 16 µg/mL, the MIC ([3]; Staphylococcus aureus, MRSA, read-out: Amikacin MIC Alone, S. aureus MRSA) was 32 µg/mL (≈ 54.6 µM) and the MIC ([3]; Stenotrophomonas maltophilia, read-out: Amikacin MIC + Peptide, S. maltophilia, peptide MBI 11B16CN) was 8 µg/mL. It also gave an MIC ([3]; Stenotrophomonas maltophilia, read-out: Amikacin MIC + Peptide, S. maltophilia, peptide MBI 21A2) of 8 µg/mL, an MIC ([3]; Stenotrophomonas maltophilia, read-out: Amikacin MIC + Peptide, S. maltophilia, peptide MBI 26) of 8 µg/mL and an MIC ([3]; Stenotrophomonas maltophilia, read-out: Amikacin MIC + Peptide, S. maltophilia, peptide MBI 29A3) of 8 µg/mL. For the same compound, the MIC ([3]; Stenotrophomonas maltophilia, read-out: Amikacin MIC + Peptide, S. maltophilia, peptide MBI 29F1) was 8 µg/mL and the MIC ([3]; Stenotrophomonas maltophilia, read-out: Amikacin MIC Alone, S. maltophilia) was 128 µg/mL (≈ 219 µM).

“KKAAAKAAAAAKAAWAAKAAAKKKK [Deber A2KA2, reference compound]” was tested, and the “Gentamicin MIC + Peptide” value ([1]; A. calcoaceticus AC001) was 4 µg/mL, the “Peptide MIC + Gentamicin” value ([1]; A. calcoaceticus AC001) was 16 µg/mL and the “Peptide MIC Alone” value ([1]; A. calcoaceticus AC001) was greater than 128 µg/mL. The “Gentamicin MIC + Peptide” value ([1]; P. aeruginosa PA041) was 4 µg/mL, the “Peptide MIC + Gentamicin” value ([1]; P. aeruginosa PA041) was 64 µg/mL and the “Peptide MIC Alone” value ([1]; P. aeruginosa PA041) was greater than 128 µg/mL. For the same compound, the FIC ([1]; A. calcoaceticus AC001) was 0.56, the FIC ([1]; P. aeruginosa PA041) was 0.50 and the “Peptide MIC Alone” value (bacterial isolates; A. baumannii ABI001) was greater than 128 µg/mL. For the same compound, the “Peptide MIC Alone” value (bacterial isolates; A. baumannii ABI002) was greater than 128 µg/mL, the “Peptide MIC Alone” value (bacterial isolates; A. calcoaceticus AC001) was greater than 128 µg/mL and the “Peptide MIC Alone” value (bacterial isolates; P. aeruginosa PA022) was greater than 128 µg/mL. The “Peptide MIC Alone” value (bacterial isolates; P. aeruginosa PA041) was greater than 128 µg/mL, the “Peptide MIC Alone” value (bacterial isolates; [7]) was greater than 128 µg/mL and the “Peptide MIC Alone” value (bacterial isolates; S. maltophilia SMA017) was greater than 128 µg/mL. For the same compound, the “Gentamicin MIC + Peptide” value (bacterial isolates; A. baumannii ABI001) was 32 µg/mL, the “Peptide MIC + Gentamicin” value (bacterial isolates; A. baumannii ABI001) was 8 µg/mL and the “Gentamicin MIC + Peptide” value (bacterial isolates; A. baumannii ABI002) was 32 µg/mL. For the same compound, the “Peptide MIC + Gentamicin” value (bacterial isolates; A. baumannii ABI002) was 0.125 µg/mL, the “Gentamicin MIC + Peptide” value (bacterial isolates; A. calcoaceticus AC001) was 4 µg/mL and the “Peptide MIC + Gentamicin” value (bacterial isolates; A. calcoaceticus AC001) was 16 µg/mL. For the same compound, the “Gentamicin MIC + Peptide” value (bacterial isolates; P. aeruginosa PA022) was 16 µg/mL, the “Peptide MIC + Gentamicin” value (bacterial isolates; P. aeruginosa PA022) was 4 µg/mL and the “Gentamicin MIC + Peptide” value (bacterial isolates; P. aeruginosa PA041) was 8 µg/mL. The “Peptide MIC + Gentamicin” value (bacterial isolates; P. aeruginosa PA041) was 0.125 µg/mL, the “Gentamicin MIC + Peptide” value (bacterial isolates; [7]) was 64 µg/mL and the “Peptide MIC + Gentamicin” value (bacterial isolates; [7]) was 0.125 µg/mL. The “Gentamicin MIC + Peptide” value (bacterial isolates; S. maltophilia SMA017) was 64 µg/mL, the “Peptide MIC + Gentamicin” value (bacterial isolates; S. maltophilia SMA017) was 0.125 µg/mL and the FIC (bacterial isolates; A. baumannii ABI001) was 0.53. For the same compound, the FIC (bacterial isolates; A. baumannii ABI002) was 0.50, the FIC (bacterial isolates; A. calcoaceticus AC001) was 0.56 and the FIC (bacterial isolates; P. aeruginosa PA022) was 0.52. It also gave an FIC (bacterial isolates; P. aeruginosa PA041) of 0.50, an FIC (bacterial isolates; [7]) of 0.50 and an FIC (bacterial isolates; S. maltophilia SMA017) of 0.50. For the same compound, the “Amikacin MIC + Peptide” value ([2]; E. faecalis EFS008) was 8 µg/mL, the “Peptide MIC + Amikacin” value ([2]; E. faecalis EFS008) was 16 µg/mL and the “Peptide MIC Alone” value ([2]; E. faecalis EFS008, Amikacin section) was greater than 128 µg/mL. The FIC ([2]; peptide + Amikacin, E. faecalis EFS008) was 0.19, the “Peptide MIC + Amikacin” value ([3]; A. baumannii) was 32 µg/mL and the “Peptide MIC Alone” value ([3]; A. baumannii) was greater than 128 µg/mL. The “Peptide MIC + Amikacin” value ([3]; S. aureus MRSA) was 8 µg/mL, the “Peptide MIC Alone” value ([3]; S. aureus MRSA) was 16 µg/mL and the FIC ([3]; A. baumannii) was 0.63. It also gave an FIC ([3]; S. aureus MRSA) of 0.50.
